This note sets out measurements from patent US6537770B1, “Assay for detecting phospho-N-acetylmuramyl-pentapeptide translocase activity” (priority 1999, dated 2003).

Assay [1] addresses T1, translocase enzyme (Escherichia coli membranes) (Escherichia coli, UniProt P0A6W3).
T1 construct: The membranes are prepared from spheroplast pellets which are commercially available; Each pellet contains a certain amount of E. coli Hfr H; endogenous in cells; host or cells: E. coli Hfr H membranes, prepared from commercially available spheroplast pellets
Briefly: reversal of the translocase reaction (Lipid I back to the water soluble precursor) on addition of UMP. It is filed as biochemical. Conditions: 1 μM UMP added after 10 minutes reaction, stopped after about 3-4 minutes. From the text:
The reaction catalysed by the enzyme translocase is known to be reversible. To show the reversible reaction, the enzyme reaction was continued for 10 mintues to form the radioactive product, undecaprenol-pyrophosphate-[2,3-^3H]propionate-N-acetylmuramylpentapeptide, Lipid I. This is seperated from its organic phase. Once the radioactive product is formed one set of reactions is stopped using the 2:1 pyridinium acetate and n-butanol mixture as described before. In a parallel set of reactions, 1 μM UMP is added. The reaction is then stopped after about 3-4 minutes. The lipid fraction can be extracted from both the sets of reactions. […] This indicates the reversal of Lipid I to the water soluble precursor.

In assay [2] the target is T1, translocase enzyme (Escherichia coli membranes). Briefly: phospho-N-acetylmuramyl-pentapeptide translocase assay with 3H-propionated UDP-MPP, butanol extraction and scintillation counting. To be noted: Tunicamycin at 0.3 μg/ml; FIG. 2. The assay is classed as biochemical. How it is done: Eppendorf tubes were individually filled with a total of 40 μl of the reaction mixture each, initially. The reaction mixture consisted of an aqueous buffer solution of 100 mM Tris-HCl (Tris[hydroxymethyl]aminomethane hydrochloride), 25 mM magnesium chloride, 50 Mm of potassium chloride, 0.1% w/v Triton X-100, 8 μM of propionated non-radioactive UDP-MPP, 2 μM of ^3H-propionated UDP-MPP at room temperature, 10 μl of the enzyme at a concentration of 5 μg per ml and 17.5 μl of water. To this a solution of a test compound (e.g. Tunicamycin) of varying concentration is added. […] The reaction commences with the addition of the enzyme.
The Escherichia coli membranes, which serve as a source of the enzyme, were prepared in the following manner.
The membranes are prepared from spheroplast pellets which are commercially available. Each pellet contains a certain amount of E. coli Hfr H. The pellet is thawed overnight at 4° C. The pellet is weighed and the figure is multiplied by 7.5. […] The pellet is again resuspended in the same volume of 50 mM Tris-HCl buffer solution of pH 7.5 as calculated in the previous paragraph, containing, 20 μg/ml DNAse, 20 μg/ml RNAse, 1 mM magnesium chloride and 1 mM β-mercapto ethanol. […]
The product is extracted with saturated n-butanol and washed with 50 μl of water. It is then counted, 25-50 μl at a time on a scintillation counter.

T1 sequence (P0A6W3 whole entry): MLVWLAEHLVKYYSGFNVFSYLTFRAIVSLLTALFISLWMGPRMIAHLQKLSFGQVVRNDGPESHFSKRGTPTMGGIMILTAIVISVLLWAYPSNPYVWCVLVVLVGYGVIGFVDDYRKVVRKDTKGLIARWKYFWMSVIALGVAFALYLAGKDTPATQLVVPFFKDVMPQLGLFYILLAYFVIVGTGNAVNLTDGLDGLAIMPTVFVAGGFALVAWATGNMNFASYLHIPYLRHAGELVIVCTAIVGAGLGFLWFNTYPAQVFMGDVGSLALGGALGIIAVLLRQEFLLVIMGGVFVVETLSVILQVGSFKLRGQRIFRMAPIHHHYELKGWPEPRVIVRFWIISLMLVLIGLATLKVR

Consider `O=c1ccn([C@@H]2O[C@H](COP(=O)(O)O)[C@@H](O)[C@H]2O)c(=O)[nH]1` [UMP], for which the “radioactive count in the organic phase (Lipid I)” value in assay [1] was “reduced to basal levels”.
For Tunicamycin, the “inhibition of translocase (rate, cpm versus time compared with control)” value in assay [2] is recorded as “antagonist of the translocase enzyme”.
